Bounds are passed on as bounds.

In one data set the target is T1, human FXR (Homo sapiens, UniProt Q96RI1).
T1 construct: purchased Indigo Biosciences (State College, Pa.)
T1 sequence (Q96RI1 1-486): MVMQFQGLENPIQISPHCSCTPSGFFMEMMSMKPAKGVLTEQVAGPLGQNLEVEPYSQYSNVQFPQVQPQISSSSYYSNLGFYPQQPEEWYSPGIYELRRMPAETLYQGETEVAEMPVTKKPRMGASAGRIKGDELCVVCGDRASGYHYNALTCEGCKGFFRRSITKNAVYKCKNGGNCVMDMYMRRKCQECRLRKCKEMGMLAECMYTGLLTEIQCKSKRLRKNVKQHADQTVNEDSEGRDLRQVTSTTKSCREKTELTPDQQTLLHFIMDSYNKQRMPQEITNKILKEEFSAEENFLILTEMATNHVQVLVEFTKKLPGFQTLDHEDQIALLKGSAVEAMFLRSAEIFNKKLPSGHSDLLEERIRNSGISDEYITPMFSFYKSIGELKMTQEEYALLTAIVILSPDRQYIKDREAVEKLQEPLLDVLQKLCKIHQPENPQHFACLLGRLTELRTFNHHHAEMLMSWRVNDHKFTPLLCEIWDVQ
The data set is described as follows: FXR counter screen, cell-based luciferase reporter assay. The note with it: cells expressing human FXR and FXR-responsive luciferase reporter, 0.4 to 50 μM test compound; read-out: pEC50 human FXR (converted). Here is the method: FXR: The ability of test compounds to activate FXR (NR1H4) was measured using a cell-based assay kit obtained from Indigo Biosciences (State College, Pa.).
(In general: A counterscreen serves to expose hits that act by an unwanted route or on another target.)

For data set [1], the target named is T2, endogenously expressed TGR5 in NCI H716 (Homo sapiens, UniProt Q8TDU6).
T2 construct: human caecum carcinoma cell line NCI-H716 which endogenously expresses human TGR5; endogenous in cells; host or cells: NCI-H716
T2 sequence (Q8TDU6 1-330): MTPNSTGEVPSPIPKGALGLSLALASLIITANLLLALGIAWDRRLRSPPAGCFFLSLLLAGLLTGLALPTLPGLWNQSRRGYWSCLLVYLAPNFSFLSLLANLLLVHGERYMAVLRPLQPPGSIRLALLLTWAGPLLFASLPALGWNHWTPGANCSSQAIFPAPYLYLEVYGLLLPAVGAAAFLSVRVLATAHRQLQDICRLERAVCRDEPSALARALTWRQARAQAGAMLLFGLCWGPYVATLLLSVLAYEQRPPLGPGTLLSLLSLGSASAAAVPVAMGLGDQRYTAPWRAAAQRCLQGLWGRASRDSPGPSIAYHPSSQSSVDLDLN
The data set is described as follows: Cell-based TGR5 assay, NCI-H716 cells endogenously expressing human TGR5, cAMP by HTRF. The note with it: 30 min at 37 C, 22 nM to 50 μM, read-out: pEC50 endogenously expressed TGR5 in NCI H716 (converted). The method in brief: (§1)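 cAMP HTRF read-out, converted to concentration via standard curve, after a 30 min, 37 °C compound exposure in HBSS with 10 mM HEPES pH 7.4 and 0.5 mM IBMX, compounds serially diluted 3-fold from 10 mM DMSO stock then 100-fold. Cells: stable human TGR5 HEK293, or NCI-H716 expressing TGR5 endogenously.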
(In general: TR-FRET usually uses a lanthanide donor and a delayed reading to cut background.)

For the next data set, the target named is T3, human TGR5 (Homo sapiens, UniProt Q8TDU6).
T3 construct: expressed in transfected cells
T3 sequence (Q8TDU6 1-330): T2 sequence (Q8TDU6 1-330)
Briefly: Cell-based TGR5 assay, HEK293 cells stably expressing human TGR5, cAMP by HTRF. The following applies: HEK293 cells stably expressing human TGR5, 30 min at 37 C, 0.05 nM to 10 μM, read-out: pEC50 Human TGR5 (converted). The method, boiled down: as §1

Data set [2] is described as follows: Compound concentration in gall bladder, LC-MS/MS, 8 h post dose. The class given is in vivo. The note with it: 30 mg/kg; for Number of Mice with Gallbladder Concentration < LLOQ: mice below LLOQ / mice in group; for concentration at 8 h: male, C57BL/6, mouse, with contents, mice, gallbladder homogenate, read-out: Mean Example Gallbladder Concentration. The method, boiled down:
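Gallbladder with its contents excised from isoflurane-anesthetized mice 8 h after dosing and homogenized in water. Homogenate diluted 1:5, precipitated with acetonitrile and measured by LC-MS/MS. Levels interpolated from per-compound standard curves in vehicle-treated gallbladder homogenate.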

Data set [3] can be described thus: Compound plasma concentration, LC-MS/MS, 8 h post dose. In kind it is in vivo. The note with it: 30 mg/kg; for Number of Mice with Plasma Concentration < LLOQ: mice below LLOQ / mice in group; for concentration at 8 h: male, C57BL/6, mouse, mice, plasma, read-out: Mean Example Plasma Concentration. The method in brief:
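Blood was taken from the left ventricle 8 h after dosing, under isoflurane anesthesia, into EDTA tubes containing aprotinin and DPPIV inhibitor. Plasma was protein-precipitated with acetonitrile containing an internal standard, and supernatants were analyzed by LC-MS/MS against a plasma standard curve.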

The next data set has as its target T4, human IBAT (Homo sapiens, UniProt Q12908).
T4 construct: expressed in transfected cells; host or cells: HEK293
T4 sequence (Q12908 1-348): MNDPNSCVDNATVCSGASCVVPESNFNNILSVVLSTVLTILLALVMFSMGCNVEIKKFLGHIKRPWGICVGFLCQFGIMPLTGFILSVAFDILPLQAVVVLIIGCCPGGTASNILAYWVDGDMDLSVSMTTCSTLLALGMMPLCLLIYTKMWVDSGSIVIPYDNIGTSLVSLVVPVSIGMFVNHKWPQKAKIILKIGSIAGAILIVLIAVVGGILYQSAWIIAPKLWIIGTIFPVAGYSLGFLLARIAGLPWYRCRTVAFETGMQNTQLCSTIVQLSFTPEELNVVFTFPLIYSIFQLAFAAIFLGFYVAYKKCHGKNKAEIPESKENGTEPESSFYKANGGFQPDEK
Briefly: IBAT counter screen, [3H]taurocholic acid uptake in IBAT-transfected HEK293 cells. The class given is cell-based. The following applies: read-out: pEC50 human IBAT (converted). The protocol:
Following a 40-min incubation, the solution was removed, and the cells were washed twice with uptake buffer. Cells were lysed by addition of 20 μL 0.1% Tween 80 followed by 100 μL scintillation fluid and counted using a TopCount (Perkin Elmer).

The next data set deals with total GLP-1. Briefly: In vivo GLP-1 secretion, plasma total GLP-1 8 h post dose. The following applies: Mus musculus, C57BL/6 male mice, food removed, plasma total GLP-1 eight hours after dosing, read-out: GLP-1 fold change over vehicle, Mean. The text has this:
(§2) Eight hours later, each mouse was heavily anesthetized with isoflurane, the peritoneal cavity was opened and the gallbladder, with its entire contents, was carefully excised and weighed. Blood was collected from the left ventricle of the heart and processed to plasma in EDTA-coated tubes containing aprotinin and DPPIV inhibitor for measurement of total GLP-1 (K150FCC; Meso Scales Discovery, Gaithersburg Md.).

A further data set deals with C57BL/6 male mice. The data set is described as follows: In vivo gallbladder measurement (weight) 8 h post dose. The note with it: 30 mg/kg; for Gallbladder weight/body weight fold change over vehicle, Significance: 8 h, vs. vehicle, one-way ANOVA, Dunnett's test; for Gallbladder weight/body weight fold change over vehicle, Mean: food removed, eight hours after dosing.
Text: as §2

In the case of `CN(C[C@H](O)[C@@H](O)[C@H](O)[C@H](O)CO)C(=O)CCc1cc(Cl)c(OCC2(C(=O)N3CCN(C4CC4)c4ccccc43)CC2)cc1Cl` [Example 34, 3-[2,5-dichloro-4-([1-[(4-cyclopropyl-1,2,3,4-tetrahydroquinoxalin-1-yl)carbonyl]cyclopropyl]methoxy)phenyl]-N-methyl-N-[(2S,3R,4R,5R)-2,3,4,5,6-pentahydroxyhexyl]propanamide], the EC50 is more than 50.1 µM at human FXR, 1.26 to 50.1 µM in data set [1] and 0.126 to 1 µM on human TGR5.
Regarding `O=C(N1CCN(C2CC2)c2ccccc21)C1(COc2cc(Cl)ccc2Cl)CC1` [Example 32, 1-cyclopropyl-4-[[1-(2,5-dichlorophenoxymethyl)cyclopropyl]carbonyl]-1,2,3,4-tetrahydroquinoxaline], the figures for the EC50 (at human FXR; in data set [1]; on human TGR5) were more than 50.1 µM, 0.126 to 1 µM and less than 0.1 µM, respectively.
Take `O=C(N1CCN(C2CC2)c2ccccc21)C1(NCc2cc(Cl)ccc2Cl)CC1` [Example 26, (4-cyclopropyl-3,4-dihydroquinoxalin-1(2H)-yl)(1-((2,5-dichlorobenzyl)amino)cyclopropyl)methanone]: the EC50 is more than 50.1 µM on human FXR, less than 0.1 µM in data set [1], more than 25.1 µM on human IBAT and less than 0.1 µM at human TGR5. The “Number of Mice with Gallbladder Concentration < LLOQ” value in data set [2] is listed as 0/8. Besides, the concentration at 8 h in data set [2] is 30 nM; in data set [3], 9.1 ng/mL. Moreover, the “Number of Mice with Plasma Concentration < LLOQ” value in data set [3] was 0/8. Moreover, the response vs control in vivo at 30 mg/kg with total GLP-1 came to 160%. Also, the “Gallbladder weight/body weight fold change over vehicle, Significance” value in the data set on C57BL/6 male mice is recorded as “* (* p < 0.05 vs. vehicle; One-way ANOVA followed by Dunnett's test)”. Also, in the data set with C57BL/6 male mice, the “Gallbladder weight/body weight fold change over vehicle, Mean” value was found to be 1.6 fold change over vehicle.
Take `O=C(CCc1cc(Cl)c(OCC2(C(=O)N3CCN(C4CC4)c4ccccc43)CC2)cc1Cl)NC[C@H](O)[C@@H](O)[C@H](O)[C@H](O)CO` [Example 75, 3-[2,5-dichloro-4-([1-[(4-cyclopropyl-1,2,3,4-tetrahydroquinoxalin-1-yl)carbonyl]cyclopropyl]methoxy)phenyl]-N-[(2S,3R,4R,5R)-2,3,4,5,6-pentahydroxyhexyl]propanamide]: the EC50 at human FXR was more than 50.1 µM; in data set [1], 0.126 to 1 µM; on human TGR5, 0.126 to 1 µM.
With `O=C(CCCCc1cc(Cl)c(CNC2(C(=O)N3CCN(C4CC4)c4ccccc43)CC2)cc1Cl)NC[C@H](O)[C@@H](O)[C@H](O)[C@H](O)CO` [Example 218], in data set [2], the “Number of Mice with Gallbladder Concentration < LLOQ” value is 0/8. Besides, the results for the concentration at 8 h in data set [2] and in data set [3] were 100 nM and 0.7 ng/mL, respectively. For the same compound, the EC50 is less than 0.1 µM in data set [1], more than 25.1 µM at human IBAT and less than 0.1 µM at human TGR5. Moreover, the “Number of Mice with Plasma Concentration < LLOQ” value in data set [3] was 2/8. For the same compound, in the data set on total GLP-1, the response vs control in vivo at 30 mg/kg is 140%. Also, the “Gallbladder weight/body weight fold change over vehicle, Significance” value with C57BL/6 male mice is “n.s”. For the same compound, in the data set with C57BL/6 male mice, the “Gallbladder weight/body weight fold change over vehicle, Mean” value was determined as 1.0 fold change over vehicle.
Take `O=C(CCCCc1cc(Cl)c(COC2(C(=O)N3CCN(C4CC4)c4ccccc43)CC2)cc1Cl)NC[C@H](O)[C@@H](O)[C@H](O)[C@H](O)CO` [Example 193]: in data set [2], the “Number of Mice with Gallbladder Concentration < LLOQ” value is given as 0/8 and the concentration at 8 h was found to be 900 nM. In data set [3], the “Number of Mice with Plasma Concentration < LLOQ” value is on record as 5/8 and the concentration at 8 h was 5.2 ng/mL. Moreover, the EC50 at human IBAT is more than 25.1 µM. For the same compound, in the data set with total GLP-1, the response vs control in vivo at 30 mg/kg is 90%. Further, in the data set with C57BL/6 male mice, the “Gallbladder weight/body weight fold change over vehicle, Significance” value is “n.s” and the “Gallbladder weight/body weight fold change over vehicle, Mean” value is on record as 1.1 fold change over vehicle. Further, the EC50 on human TGR5 was less than 0.1 µM.
In the case of `O=C(N1CCN(C2CC2)c2ccccc21)C1(OCc2cc(Cl)ccc2Cl)CC1` [Example 9, (4-cyclopropyl-3,4-dihydroquinoxalin-1(2H)-yl)(1-(2,5-dichlorobenzyloxyl)cyclopropyl)methanone], the EC50 at human FXR is more than 50.1 µM; in data set [1] it was 0.126 to 1 µM; at human IBAT, more than 25.1 µM; on human TGR5, less than 0.1 µM.
Regarding `O=C(CCc1cc(Cl)c(COC2(C(=O)N3CCN(C4CC4)c4ccccc43)CC2)cc1Cl)NC[C@H](O)[C@@H](O)[C@H](O)[C@H](O)CO` [Example 88, 3-[2,5-dichloro-4-([1-[(4-cyclopropyl-1,2,3,4-tetrahydroquinoxalin-1-yl)carbonyl]cyclopropoxy]methyl)phenyl]-N-[(2S,3R,4R,5R)-2,3,4,5,6-pentahydroxyhexyl]propanamide], the EC50 was more than 50.1 µM at human FXR, less than 0.1 µM in data set [1] and less than 0.1 µM on human TGR5.
On to `CN(C[C@H](O)[C@@H](O)[C@H](O)[C@H](O)CO)C(=O)CCc1cc(Cl)c(COC2(C(=O)N3CCN(C4CC4)c4ccccc43)CC2)cc1Cl` [Example 80, 3-[2,5-dichloro-4-([1-[(4-cyclopropyl-1,2,3,4-tetrahydro-quinoxalin-1-yl)carbonyl]cyclopropoxy]methyl)phenyl]-N-methyl-N-[(2S,3R,4R,5R)-2,3,4,5,6-pentahydroxyhexyl]propanamide], for which the EC50 on human FXR was more than 50.1 µM; in data set [1], 0.126 to 1 µM; at human TGR5, less than 0.1 µM.
On to `CN(C[C@H](O)[C@@H](O)[C@H](O)[C@H](O)CO)C(=O)NCCCCOc1cc(Cl)c(CN2CSC[C@H]2C(=O)N2CCN(C3CC3)c3ccccc32)cc1Cl` [Example 191], for which, in data set [2], the “Number of Mice with Gallbladder Concentration < LLOQ” value is listed as 0/8 and the concentration at 8 h turned out to be 100 nM. The EC50 in data set [1] was 0.126 to 1 µM. For the same compound, in data set [3], the “Number of Mice with Plasma Concentration < LLOQ” value is given as 8/8 and the concentration at 8 h is less than 0.5 ng/mL. Besides, in the data set with total GLP-1, the response vs control in vivo at 30 mg/kg worked out at 150%. In the data set with C57BL/6 male mice, the “Gallbladder weight/body weight fold change over vehicle, Significance” value is “n.s” and the “Gallbladder weight/body weight fold change over vehicle, Mean” value came to 1.0 fold change over vehicle. In addition, the EC50 on human TGR5 was less than 0.1 µM.

For the origin of these results see patent US20150148311A1, “NON-SYSTEMIC TGR5 AGONISTS” (Ardelyx, Inc., priority 2011, published 2015).
